In patent publication US6426401B1, “Pharmaceutical composition containing an inhibitor of immunoglobulin-receptor interaction” (Tecnogen S.C.p.A., priority 1996, dated 2002):
In brackets after ≈: the same amount, converted by molar mass.

Tests used:
[1] = tested on: interaction between human IgG and receptors Fcγ (U937 plasma-membrane); test: IgG-FcR binding inhibition on U937 plasma-membrane (ELISA)
Source text: For this purpose, it has been developed an inhibition assay of the binding between human immunoglobulins (Ig) IgG and IgA and their receptors on U937 human cell line plasma-membrane.
The IgG receptors FcgRI and FcgRII (Looney R. et al., J. Immunol., 136, 1641, 1986) and IgA receptors Fca (Monteiro R. C., et al., J. Exp.Med., 171, 597-613, 1990) are constitutively express by this cell line.
Microplates for ELISA determination (Falcon Cat. No. 3912) have been treated with plasma-membrane obtained from U937 cells in variable concentrations between 0.1 and 10 μg/ml (referred to the total proteins in the plasma-membrane preparation) in PBS, 100 μl/well, for 15 hours at 4° C.
After 1 hour and 30′ at room temperature, the plates have been washed 5 times with PBS-T (PBS-Tween 0.05%) and each well has been filled with 100 μl of solutions containing biotinilated Ig at variable concentrations between 0.02 and 2 μg/ml in PBS-BSA 0.5%.
After incubation of 1 h 30′ at 37° C., a solution of streptavidin derivatized with peroxidase has been added (Sigma, Cat. No. S-5512) diluted 1:1000 in PBS-BSA 0.5%, 100 μl/well. After 1 h incubation at 37° C., the plates have been washed 5 times with PBS-T and each well has been filled with 100 μl of a 2,2′-azino-bis(3-ethylbenzthiazoline-6-sulfonic acid) (Sigma, Cat. No. A-9941) in phosphate buffer pH 5 and 0.012% hydrogen peroxide.
After about 30′ the absorbance at 405 nm of each well has been determined by a plate reader (Merck, Mod. Mios) and the results are shown in TABLE 1.
The inhibition Ig/Fc assay has been carried out using U937 plasma-membrane at 10 μg/ml concentration for immobilization on plate and biotinilated Ig at 0.4 μg/ml concentration.
IgGs have been incubated with peptides of this invention (L-PAM, D-PAM and P-PAM) and two controls, namely peptides Arg-Thr-Tyr in L configuration (named CON-L) and in D configuration (named CON-D), at concentrations between 1 to 500 μg/ml (Table 2), whereas for IgA the inhibition assays have been carried out in similar conditions with L-PAM and CON-L peptides (Table 3).
B/B0 means the inhibition percentage calculated dividing the values, in terms of OD, obtained in presence of competitors, by those obtained in absence of competitors.

SRBC-IgG and U937 FcRs = type: cell-based, human; details: for IC50 (inhibitor amount necessary to reduce at 50% the rosettes formation between SRBC-IgG and U937 FcRs): U937/SRBC-IgG 1:100, 30 minutes at 25° C.
Source text: The trial has been carried on L-PAM and D-PAM peptides with the assay of rosettes formation inhibition between sheep red blood cells (SRBC) derivatized with human IgG and U937 cells (prepared as described above). Rosettes formation assay has been performed in accordance with the protocol of Lund J. et al. (FASEB J., 9, 115-119, 1995) modified as follows. The derivatized SRBC have been prepared using SRBC-tanned (tannic acid pretreated SRBC, Sigma Cat. No. R-8128) and human IgG (Sigma Cat. No. I-4506) following the provider protocol. […] No. A-9418) in DPBS (Sigma, Cat. No. D-5527). […] After 30 minutes at 25° C. rosettes have been counted, and more particularly U937 having 4 or more SRBC bound on the surface. In these conditions it has been discovered that, on the average, the 45% of treated U937 gave rosettes formation. In the above described conditions, it has been performed the inhibition assay of rosettes formation by using L-PAM , D-PAM, CON-L and CON-D peptides. A further control assay has been carried on by using IgG as inhibition positive control and not derivatized SRBC as negative control.

[2] = tested on: interaction IgE-receptor (FcεR of local mastcells); test: Passive cutaneous anaphylaxis assay (blueing lesions, Evan's Blue); type: in vivo; details: rat; for Extension of blueing lesion (%): intradermal with ascitic fluid IgE; for inhibition of IgE-receptor interaction in vivo (in words): passive cutaneous anaphylaxis
Procedure: Rat ascit fluid containing ovalbumin antigen specific IgE and with a total immunoglobulins amount of 4 mg/ml, scaled diluted in PBS, has been injected by intradermal route in a male rat of CD specie.
Intradermal injection of 50 μl volume have been done on the shaved back of the animal.
In this way it has been allowed ascitic fluid IgE to bind FcεR of local mastcells, sensitizing them.
After 24 h, 1 mg of ovalbumin and Evan's Blue dye at 2% concentration in 1 ml of PBS have been injected by endovenous route.
After 15 minutes it has been observed the presence on the rat back derma of a colored area whose extension and color intensity are proportional to the IgE antigen-specific amount injected together with the ascitic fluid.
The blueing lesions are given by the injected antigen that bind to the IgE and determined the degranulation and the release of mediators in the site of intradermal injection. Consequently a local increase of vascular permeability and a dye leak from vessel has been observed.
For the inhibition assay, the ascitic fluid containing IgE and properly diluted has been incubated with L-PAM and D-PAM peptides in total immunoglobulins-peptides molar ratio 1:2,1:20,1:200, 1:2000, 1:20.000, and 1:200.000, […]
Separate experiments for the two peptides have been performed.
In CD1 rats, 50 μl of the fluid ascitic-peptide mixture at various concentrations have been injected intradermally.
As a positive control it has been used a 50 μl injection of ascitic fluid free of peptide.
After 24 h the antigen, together with Evans's Blue dye, has been injected as described above.
After 15 minutes it has been observed that the intensity and extension of the blueing lesions on the rat back were […] to the amounts of the injected peptide and were completely absent at highest peptide concentrations.

[3] = tested on: interaction between human IgA and receptors Fcα (U937 plasma-membrane); test: IgA/FcR binding inhibition on U937 plasma-membrane (ELISA)
Source text: For this purpose, it has been developed an inhibition assay of the binding between human immunoglobulins (Ig) IgG and IgA and their receptors on U937 human cell line plasma-membrane. The IgG receptors FcgRI and FcgRII (Looney R. et al., J. Immunol., 136, 1641, 1986) and IgA receptors Fca (Monteiro R. C., et al., J. Exp.Med., 171, 597-613, 1990) are constitutively express by this cell line. Microplates for ELISA determination (Falcon Cat. No. 3912) have been treated with plasma-membrane obtained from U937 cells in variable concentrations between 0.1 and 10 μg/ml (referred to the total proteins in the plasma-membrane preparation) in PBS, 100 μl/well, for 15 hours at 4° C. […] After incubation of 1 h 30' at 37° C., a solution of streptavidin derivatized with peroxidase has been added (Sigma, Cat. No. […] No. A-9941) in phosphate buffer pH 5 and 0.012% hydrogen peroxide. After about 30' the absorbance at 405 nm of each well has been determined by a plate reader (Merck, Mod. Mios) and the results are shown in TABLE 1. […] B/B0 has the above mentioned meaning.

[4] = inhibitor amount 0.025 micrograms (first line)
[5] = inhibitor amount 0.025 micrograms
[6] = inhibitor amount 2.5 micrograms
[7] = inhibitor amount 250 micrograms
[8] = inhibitor amount 2500 micrograms

Row | Compound | inhibition of IgG-FcR interaction (in words) [1] | inhibition of rosettes formation (in words) (SRBC-IgG and U937 FcRs) | Extension of blueing lesion (%) [2, 4] [%] | Extension of blueing lesion (%) [2, 5] [%] | Extension of blueing lesion (%) [2, 6] [%] | Extension of blueing lesion (%) ([2]; inhibitor amount 25 micrograms) | Extension of blueing lesion (%) [2, 7] [%] | Extension of blueing lesion (%) [2, 8] [%] | inhibition of IgE-receptor interaction in vivo (in words) [2] | IC50 (inhibitor amount necessary to reduce at 50% the rosettes formation between SRBC-IgG and U937 FcRs) (SRBC-IgG and U937 FcRs) | inhibition of IgA-FcR interaction (in words) [3]
1 | C[C@H](O)[C@@H](NC(=O)[C@H](N)CCCNC(=N)N)C(=O)N[C@H](Cc1ccc(O)cc1)C(=O)NCCCC[C@H](NC(=O)[C@@H](Cc1ccc(O)cc1)NC(=O)[C@H](NC(=O)[C@H](N)CCCNC(=N)N)[C@H](C)O)C(=O)NCCCC[C@H](NC(=O)[C@H](CCCCNC(=O)[C@@H](Cc1ccc(O)cc1)NC(=O)[C@H](NC(=O)[C@H](N)CCCNC(=N)N)[C@H](C)O)NC(=O)[C@@H](Cc1ccc(O)cc1)NC(=O)[C@H](NC(=O)[C@H](N)CCCNC(=N)N)[C@H](C)O)C(=O)NCC(=O)O [D-PAM, (H2N-D-Arg-D-Thr-D-Tyr-CO)4-(Lys)2-Lys-Gly-OH] | produce, in a dose-dependent manner, the same interaction level as IgG | capable of inhibiting rosettes formation | 60 | 37 | 33 | 20 | 15 | 0 | able to inhibit in a dose dependent manner the interaction IgE-receptor up to a complete disappearance of the inflammatory reaction |  | 
2 | C[C@@H](O)[C@H](NC(=O)[C@@H](N)CCCNC(=N)N)C(=O)N[C@@H](Cc1ccc(O)cc1)C(=O)NCCCC[C@H](NC(=O)[C@H](Cc1ccc(O)cc1)NC(=O)[C@@H](NC(=O)[C@@H](N)CCCNC(=N)N)[C@@H](C)O)C(=O)NCCCC[C@H](NC(=O)[C@H](CCCCNC(=O)[C@H](Cc1ccc(O)cc1)NC(=O)[C@@H](NC(=O)[C@@H](N)CCCNC(=N)N)[C@@H](C)O)NC(=O)[C@H](Cc1ccc(O)cc1)NC(=O)[C@@H](NC(=O)[C@@H](N)CCCNC(=N)N)[C@@H](C)O)C(=O)NCC(=O)O [L-PAM, (H2N-L-Arg-L-Thr-L-Tyr-CO)4-(Lys)2-Lys-Gly-OH] | produce, in a dose-dependent manner, the same interaction level as IgG | capable of inhibiting rosettes formation | 65 | 50 | 35 | 0 | 0 | 0 | able to inhibit in a dose dependent manner the interaction IgE-receptor up to a complete disappearance of the inflammatory reaction | 78 mg/L (≈ 36.4 µM) | specifically inhibit the interaction IgA-FcR
3 | (H2N-L-Arg(Pmc)-L-Thr(OtBu)-L-Tyr(OtBU)-CO)4-(Lys)2-Lys-Gly-OH [P-PAM] | produce, in a dose-dependent manner, the same interaction level as IgG |  |  |  |  |  |  |  |  |  | specifically inhibit the interaction IgA-FcR
4 | Arg-Thr-Tyr [CON-L, reference compound] | unable to inhibit this interaction | unable to inhibit this interaction |  |  |  |  |  |  |  | No Inhibition | unable to produce the same effect
5 | bovine serum albumin [BSA, reference compound] | unable to inhibit this interaction |  |  |  |  |  |  |  |  |  | unable to produce the same effect
